US20040009569A1, “Kinase crystal structures and materials and methods for kinase activation” (priority 2001, published 2004)
Peptide text beside a SMILES is read from it.

Assays:
pΔPH-PKB-ΔC = target: T1, pΔPH-PKB-ΔC (Homo sapiens, UniProt P31751); assay: Isothermal titration calorimetry, peptide binding to pΔPH-PKB-ΔC; settings: ITC; read-out: equilibrium dissociation constant
T1 construct: pΔPH-PKB-ΔC (residues 146 to 460, phosphorylated in vitro on Thr-309); 6xHis (N, cleaved yes); made in house; host or cells: Sf9 insect cells / baculovirus (pFastBacHTa)
T1 sequence (P31751 146-460, stated change not applied): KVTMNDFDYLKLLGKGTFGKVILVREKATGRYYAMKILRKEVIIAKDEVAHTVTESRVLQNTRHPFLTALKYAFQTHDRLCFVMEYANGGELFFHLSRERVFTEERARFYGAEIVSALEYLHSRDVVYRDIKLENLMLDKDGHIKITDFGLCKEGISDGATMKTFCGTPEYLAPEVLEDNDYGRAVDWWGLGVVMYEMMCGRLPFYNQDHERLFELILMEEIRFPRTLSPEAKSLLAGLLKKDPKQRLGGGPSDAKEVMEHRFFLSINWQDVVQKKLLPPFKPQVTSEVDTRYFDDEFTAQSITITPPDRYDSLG
Procedure: (§1) (C) Isothermal titration calorimetry measurements of the binding of PIFtide to pΔPH-PKB-ΔC (left) and ΔPH-PKB-ΔC (right). Upper panel, raw data of the titration of PIFtide into pΔPH-PKB-ΔC. Lower panel, integrated heats of injections, corrected for the heat of dilution, with the solid line corresponding to the best fit of the data using the MicroCal software.
(§2) Using isothermal titration calorimetry, the affinity between PIFtide and both pΔPH-PKB-ΔC and ΔPH-PKB-ΔC was determined (FIG. 5C). […] The observed large decrease in entropy is […] typical of protein-peptide interactions, for example SH2-domain-phosphotyrosine peptide complexes (Ladbury et al., 1996), and is consistent with an ordering of both the protein, presumably the αB- and αC-helices of the N-lobe, and peptide on complex formation.

[1] = target: T2, pΔPH-PKB-ΔC (PKBβ residues 146 to 460, phosphorylated in vitro on Thr-309) (Homo sapiens, UniProt P31751); assay: Protein kinase B assay with Crosstide as substrate, peptide stimulation of pΔPH-PKB-ΔC; assay type: biochemical; settings: Crosstide substrate
T2 construct: pΔPH-PKB-ΔC (residues 146 to 460, phosphorylated in vitro on Thr-309); 6xHis (N, cleaved yes); made in house; host or cells: Sf9 insect cells / baculovirus (pFastBacHTa)
T2 sequence (P31751 146-460, stated change not applied): as above
Procedure: To test the model that Ser 474 phosphorylation promotes an interaction between the hydrophobic motif and the induced hydrophobic groove of the N-terminal lobe, thereby causing an allosteric activation of the kinase, the ability of peptides modelled on the hydrophobic motif of PKB to activate the enzyme via an intermolecular association with the N-terminal lobe was assessed.
(§3) PKB was assayed essentially as described by Andjelkovic et al. (1999) with 30 μM Crosstide (GRPRTSSAEG) as substrate except the protein kinase A inhibitor peptide was not added to the reactions. For peptide stimulation experiments the various peptides were dissolved in water and added to the kinase assay mix prior to adding the PKB protein. Peptides were synthesized by Franz Fischer at the FMI or purchased from Neosystem, Strasburg, France.
All experiments were performed in either duplicate or triplicate.

[2] = target: T3, His tagged pΔPH-PKB-ΔC R202D mutant (Homo sapiens, UniProt P31751, R202D); assay: PIFtide responsiveness of charge reversal mutant R202D; assay type: biochemical
T3 construct: pΔPH-PKB-ΔC (residues 146 to 460, phosphorylated in vitro on Thr-309); made in house; host or cells: HEK cells (transient expression), purified on Ni-NTA agarose
T3 sequence (P31751 146-460 R202D): as the sequence (P31751 146-460, stated change not applied) above, with R57D counted along it
Procedure: (§4) Mutations of conserved hydrophobic motif residues of PIFtide and PKB HM-peptide reduce or eliminate their potential to activate ΔPH-PKB-ΔC phosphorylated on Thr 309. Mutations of hydrophobic and electrostatic residues of the ΔPH-PKB-ΔC N-lobe hydrophobic groove reduces the stimulation of PKB activity by 130 μM PIFtide.
(§5) To test the notion that a hydrophobic groove is induced in PKB to engage the hydrophobic motif, and activate the kinase, a series of His tagged pΔPH-PKB-ΔC hydrophobic groove mutants were prepared and their responsiveness to PIFtide assessed. PKB mutants were transiently expressed in HEK cells, phosphorylated in vitro with PDK1, and purified using Ni-NTA agarose. […] Wild type PKB prepared using this procedure was stimulated ˜5-fold by 130 μM PIFtide (FIG. 6B).
Electrostatic interactions are important in defining high affinity PIFtide and PKB HM peptide associations with PKB (FIG. 5B), and form the basis for the increased affinity of the HM for the N-lobe and subsequent activation of PKB by Ser 474 phosphorylation. […] The equivalent residue of PKA, Arg 93, which is also conserved in PKC and PRK2, forms a water-mediated salt bridge to the carboxylate group of Glu 349 (FIG. 2).
PKB was assayed essentially as described by Andjelkovic et al. (1999) with 30 μM Crosstide (GRPRTSSAEG) as substrate except the protein kinase A inhibitor peptide was not added to the reactions. […]

PDK1 [3] = target: T4, PDK1 (Homo sapiens, UniProt O15530); settings: cited from earlier work
T4 sequence (O15530 1-556): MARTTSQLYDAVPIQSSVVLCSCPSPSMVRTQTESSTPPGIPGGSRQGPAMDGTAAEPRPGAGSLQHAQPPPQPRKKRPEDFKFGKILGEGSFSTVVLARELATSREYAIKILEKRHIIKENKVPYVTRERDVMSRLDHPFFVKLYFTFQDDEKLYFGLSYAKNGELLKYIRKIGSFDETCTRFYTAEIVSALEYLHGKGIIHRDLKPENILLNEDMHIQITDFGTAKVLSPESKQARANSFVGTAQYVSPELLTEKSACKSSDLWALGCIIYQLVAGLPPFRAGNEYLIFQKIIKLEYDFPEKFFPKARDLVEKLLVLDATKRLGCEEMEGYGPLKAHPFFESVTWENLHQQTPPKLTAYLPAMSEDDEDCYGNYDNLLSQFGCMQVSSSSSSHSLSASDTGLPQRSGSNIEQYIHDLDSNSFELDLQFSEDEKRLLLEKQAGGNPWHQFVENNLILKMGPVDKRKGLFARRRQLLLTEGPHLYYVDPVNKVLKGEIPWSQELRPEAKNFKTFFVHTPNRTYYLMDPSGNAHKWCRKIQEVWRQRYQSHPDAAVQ

[4] = target: T5, His tagged pΔPH-PKB-ΔC L225A mutant (Homo sapiens, UniProt P31751, L225A); assay: PIFtide responsiveness of hydrophobic groove mutant Leu 225; assay type: biochemical; settings: 130 μM PIFtide
T5 construct: pΔPH-PKB-ΔC (residues 146 to 460, phosphorylated in vitro on Thr-309); made in house; host or cells: HEK cells (transient expression), purified on Ni-NTA agarose
T5 sequence (P31751 146-460 L225A): as the sequence (P31751 146-460, stated change not applied) above, with L80A counted along it
Procedure: as §4, §5, §3

ΔPH-PKB-ΔC = target: T6, ΔPH-PKB-ΔC (Homo sapiens, UniProt P31751); assay: Isothermal titration calorimetry, peptide binding to ΔPH-PKB-ΔC
T6 construct: ΔPH-PKB-ΔC(residues 146 to 460, not phosphorylated on Thr-309); 6xHis (N, cleaved yes); made in house; host or cells: Sf9 insect cells / baculovirus (pFastBacHTa)
T6 sequence (P31751 146-460, stated change not applied): as the sequence (P31751 146-460, stated change not applied) above
Procedure: as §1, §2

PDK1 [5] = target: T4, PDK1; settings: cited from earlier work; remark: listed apart in the source

CC[C@H](C)[C@H](NC(=O)[C@H](Cc1ccc(O)cc1)NC(=O)[C@H](CC(=O)O)NC(=O)[C@H](Cc1ccccc1)NC(=O)[C@H](CC(=O)O)NC(=O)[C@H](CCCNC(=N)N)NC(=O)[C@H](Cc1ccccc1)NC(=O)[C@H](CCSC)NC(=O)[C@H](CCC(=O)O)NC(=O)[C@H](CCC(N)=O)NC(=O)[C@H](CCC(=O)O)NC(=O)[C@H](CCC(=O)O)NC(=O)[C@H](CCC(=O)O)NC(=O)[C@H](CO)NC(=O)[C@H](CC(C)C)NC(=O)[C@@H](NC(=O)[C@H](CCCNC(=N)N)NC(=O)[C@@H]1CCCN1C(=O)[C@H](CCC(=O)O)NC(=O)[C@@H](N)CCCNC(=N)N)[C@@H](C)CC)C(=O)N[C@@H](C)C(=O)N[C@@H](CC(=O)O)C(=O)N[C@@H](Cc1c[nH]c2ccccc12)C(=O)O [PIFtide] (H-REPRILSEEEQEMFRDFDYIADW-OH; N-terminus and C-terminus assumed)
Kd (pΔPH-PKB-ΔC): 6 µM
concentration of maximum and saturable activation [1]: 20 µM
specific activity of pΔPH-PKB-ΔC maximally activated by PIFtide [1]: 350 nmol/min/mg
EC50 ([1]; value of PIFtide(D->A) called estimated, read-out: EC50 for activation of pΔPH-PKB-ΔC): 3 µM
ability of PIFtide to activate R202D PKB (in words) ([2]; 130 μM PIFtide): almost eliminates
responsiveness of R202D PKB (in words) ([2]; higher concentrations of the peptide): more responsive
stimulation of PDK1 activity (PDK1 [3]): four-fold
responsiveness to PIFtide (in words) [4]: almost a complete loss of responsiveness
binding to ΔPH-PKB-ΔC (in words) (ΔPH-PKB-ΔC): can bind
enthalpy change ΔH (ΔPH-PKB-ΔC; ITC): -16.0 kcal/mol
entropy term TΔS (ΔPH-PKB-ΔC; ITC): -9.2 kcal/mol
Kd (ΔPH-PKB-ΔC; ITC, read-out: dissociation constant): 5.5 µM
effect on thermal stability of PDK1 (in words) (PDK1 [5]): greatly increases
